Assay results from US20060069040A1, “GHB compositions” (priority 2004, published 2006).
Where two headings read alike, the source gives them in different places.

Tests used:
CD-1 male mice [1] = type: in vivo
Protocol: (§1) CD-1 male mice (30-40 g) were housed 3 to 4 per cage in the animal care facility on a 12 hour light dark cycle with free access to water and food for at least 1 week before testing.
The Rota-rod is a validated and sensitive tool that has been developed to document neurological deficits after pharmacological treatments. In this test, mice are placed on an accelerating Rota-rod whose revolutions per minute increase from 4 to 40 cycles per minute in about 4 minutes. The time it takes for the mice to fall off the rod is the end point of the test. Initially, the mice were given 3 practice runs on the rod to familiarize themselves with the test procedure. The time that mice remained on the rod was usually between five and ten minutes. A baseline measure was then made, the test drug given and the test procedure run every 20 minutes starting at time 0, immediately after drug administration. The mice were tested for 160 minutes after GHB administration although in some experiments recordings were made for as long as 280 minutes. Motor activity was expressed as a percentage of the baseline value. The time it took the mice to fall off the rod at a given time point after drug administration was divided by the time it took at baseline.
(§2) Statistical significance between control and treated groups at each time point in the present study was determined by student's t-test. Note that values of motor activity were expressed as a percentage of the baseline value which was normalized to 100%.

CD-1 male mice [2] = assay: Passivity test (sleep induction and sleep time); type: in vivo; details: for Passivity test scores (2-8): 10 minutes after injection, 6 non-fasting mice, 0-normal, 8-no struggle
Protocol: as §1
The passivity test developed by Irwing was used to determine sleep time. After GHB administration, the mice were placed in an unusual position and a score of 2, 4, 6, or 8 was given when the mice ceased to struggle against respectively being suspended vertically, rotated horizontally onto their backs, suspended by their hind limbs or suspended by their forelimbs. Scores on the passivity test were determined every 10 minutes after GHB administration. […] The time between scores of 8 and 2 was defined as the total sleep time.
as §2
The optimal dose of GHB for inducing sleep was determined with the passivity test. GHB was dissolved in 0.9% NaCl and 1% Tween 80 and delivered intraperitoneally (i.p.) to 4 groups of 6 mice that had not been fasting. Each group received either 200 mg/kg, 400 mg/kg, 600 mg/kg and 800 mg/kg. […] For this reason, this dose was used in the initial exploratory studies.

[3] = man, GHB given orally; cited from earlier work
male Wistar rats [4] = assay: EEG/EMG sleep recording after IP dosing; details: for NR bout duration (NRBD): lights on
male Wistar rats [5] = assay: Core body temperature (Tb) and locomotor activity (LMA) recording by implanted transmitter; type: in vivo; details: IP dosing at ZT19, GHB 200 mg/kg in all drug conditions, comparators and ZT hours in the value
[6] = Table 2: i.p., all compounds 800 mg/kg, mice not fasting, n=6, 2′ or 15′ in label = preincubation before GHB
[7] = Table 3: oral, GHB 800 mg/kg, PA 66 mg/kg, mice fasting 12 hours, n=6
[8] = Table 4: GHB orally, GAL/GL/GA intraperitoneally, all 1200 mg/kg, mice fasting 1 hour, n=6
[9] = rats, IP dosing at ZT19, comparators and ZT hours in the value

O=C([O-])CCCO.[Na+] [GHB, gamma-hydroxybutyrate sodium salt]
Seizure-like activity (CD-1 male mice [1]; GHB 1200 mg/kg orally, mice): appeared to induce seizure-like activity in many of the mice
Percent of motor activity after GHB administration, 20′ (CD-1 male mice [1]; [6]): 0 ± 0%
Percent of motor activity after GHB administration, 40′ (CD-1 male mice [1]; [6]): 0 ± 0%
Percent of motor activity after GHB administration, 60′ (CD-1 male mice [1]; [6]): 0 ± 0%
Percent of motor activity after GHB administration, 80′ (CD-1 male mice [1]; [6]): 20 ± 2%
Percent of motor activity after GHB administration, 100′ (CD-1 male mice [1]; [6]): 35 ± 12%
Percent of motor activity after GHB administration, 120′ (CD-1 male mice [1]; [6]): 65 ± 5%
Percent of motor activity after GHB administration, 140′ (CD-1 male mice [1]; [6]): 113 ± 20%
Percent of motor activity after GHB administration, 160′ (CD-1 male mice [1]; [6]): 124 ± 20%
Percent of motor activity after GHB administration, 0′ (CD-1 male mice [1]; Table 2: i.p., all compounds 800 mg/kg, mice not fasting, n=6, 2′ or 15′ in label = preincubation before GHB, % of baseline, mean ± S.E.M.): 31 ± 7%
Percent of motor activity after GHB administration (oral), 20′ (CD-1 male mice [1]; [7]): 0 ± 0%
Percent of motor activity after GHB administration (oral), 40′ (CD-1 male mice [1]; [7]): 7 ± 3%
Percent of motor activity after GHB administration (oral), 60′ (CD-1 male mice [1]; [7]): 12 ± 6%
Percent of motor activity after GHB administration (oral), 80′ (CD-1 male mice [1]; [7]): 20 ± 8%
Percent of motor activity after GHB administration (oral), 100′ (CD-1 male mice [1]; [7]): 26 ± 5%
Percent of motor activity after GHB administration (oral), 160′ (CD-1 male mice [1]; [7]): 86 ± 1%
Percent of motor activity after GHB administration (oral), 220′ (CD-1 male mice [1]; [7]): 90 ± 8%
Percent of motor activity after GHB administration (oral), 280′ (CD-1 male mice [1]; [7]): 100 ± 7%
Percent of motor activity after GHB administration, 20′ (CD-1 male mice [1]; [8]): 27 ± 19%
Percent of motor activity after GHB administration, 40′ (CD-1 male mice [1]; [8]): 0 ± 0%
Percent of motor activity after GHB administration, 60′ (CD-1 male mice [1]; [8]): 3 ± 2%
Percent of motor activity after GHB administration, 80′ (CD-1 male mice [1]; [8]): 4 ± 1%
Percent of motor activity after GHB administration, 100′ (CD-1 male mice [1]; [8]): 5 ± 4%
Percent of motor activity after GHB administration, 160′ (CD-1 male mice [1]; [8]): 21 ± 10%
Percent of motor activity after GHB administration, 220′ (CD-1 male mice [1]; [8]): 61 ± 12%
Percent of motor activity after GHB administration, 0′ (CD-1 male mice [1]; Table 4: GHB orally, GAL/GL/GA intraperitoneally, all 1200 mg/kg, mice fasting 1 hour, n=6, mean ± S.E.M.): 58 ± 9%
Duration of reproducible decrease in motor activity (CD-1 male mice [1]; mouse, in vivo): more than 100 minutes
Percent of motor activity after GHB administration (oral), 0′ (CD-1 male mice [1]; mouse, in vivo): 51 ± 1%
Percent of motor activity after GHB administration, 0′ (CD-1 male mice [1]; mouse, in vivo, po): 94 ± 9%
Percent of motor activity after GHB administration, 20′ (CD-1 male mice [1]; mouse, in vivo, po): 2 ± 2%
Percent of motor activity after GHB administration, 40′ (CD-1 male mice [1]; mouse, in vivo, po): 0 ± 0%
Percent of motor activity after GHB administration, 60′ (CD-1 male mice [1]; mouse, in vivo, po): 4 ± 1%
Percent of motor activity after GHB administration, 80′ (CD-1 male mice [1]; mouse, in vivo, po): 10 ± 2%
Percent of motor activity after GHB administration, 100′ (CD-1 male mice [1]; mouse, in vivo, po): 22 ± 7%
Percent of motor activity after GHB administration, 160′ (CD-1 male mice [1]; mouse, in vivo, po): 104 ± 26%
Percent of motor activity after GHB administration, 220′ (CD-1 male mice [1]; mouse, in vivo, po): 122 ± 23%
Percent of motor activity after GHB administration, 280′ (CD-1 male mice [1]; mouse, in vivo, po): 117 ± 13%
Duration of depressed motor activity (CD-1 male mice [1]; oral GHB at 1200 mg/kg, mice): at least 220 minutes
Passivity test scores (2-8) (CD-1 male mice [2]; GHB 200 mg/kg i.p.): 0
Passivity test scores (2-8) (CD-1 male mice [2]; GHB 400 mg/kg i.p.): 2 ± 0.38
Passivity test scores (2-8) (CD-1 male mice [2]; GHB 600 mg/kg i.p.): 4 ± 0.25
Passivity test scores (2-8) (CD-1 male mice [2]; GHB 800 mg/kg i.p.): 8 ± 0.42
Time to reliably induce sleep (CD-1 male mice [2]; GHB 800 mg/kg i.p., non-fasting mice): ≤ 10 min
Sleep time (CD-1 male mice [2]; Table 5: orally, all compounds 7.93 mmol/kg, mice fasting 24 hours, n=8/group, mean ± S.E.M.): 35 ± 10 min
GHB induced sleep time (CD-1 male mice [2]; non-fasting mice, n=6/group, GHB 800 mg/kg i.p. alone or immediately after 800 mg/kg i.p. of the named compound): 96.5 ± 5 min
Plasma half-life [3]: about 45 minutes
Rats that displayed SW activity (male Wistar rats [4]; immediately following IP dosing, 8 rats): Seven of 8
Spike and wave (SW) activity in the EEG (male Wistar rats [4]; rats, IP dosing at ZT19, GHB 200 mg/kg in all drug conditions): elicited spike and wave activity (SW) in the EEG during the first hour following dosing
Time spent awake (W), hourly (male Wistar rats [4]; [9]): reduced W compared to vehicle during ZT 21
Time spent in non-REM (NR) sleep, hourly (male Wistar rats [4]; [9]): significantly greater than vehicle during ZT 21
NR bout duration (NRBD) (male Wistar rats [4]; rats, ZT 1 and 3): increased NRBD compared to GHB+L-gul (ZT 1, 3), GHB+PA (60 mg/kg) (ZT 1, 3) and GHB+PA (120 mg/kg) (ZT 3)
NR bout duration (NRBD) (male Wistar rats [4]; rats, ZT 5): significantly decreased NRBD during ZT 5 compared to GHB+L-gul and GHB+PA (120 mg/kg)
Locomotor activity (LMA), hourly average (male Wistar rats [5]): significantly lower LMA compared to vehicle (ZT21)
